The results in this text go back to the NIST ThermoML archive (doi:10.1021/je050006+).

The conditions of this series: 101.33 kPa, Liquid.

± gives the expanded uncertainty stated by the source.

As to `C=C1CCC2CC1C2(C)C` (stereo not drawn) [β-pinene], the mass density is 879.07 ± 0.55 kg/m3 (283.15 K), 866.97 ± 0.55 kg/m3 (298.15 K) and 855.5 ± 0.56 kg/m3 (313.15 K). The speed of sound (283.15 K) is 1356.8 ± 3.7 m/s, the speed of sound (298.15 K) is reported as 1298.7 ± 3.5 m/s and the speed of sound (313.15 K) is reported as 1232.8 ± 3.4 m/s.
With `CCCO` [propan-1-ol], the mass density (283.15 K) is recorded as 811.48 ± 0.59 kg/m3, the mass density (298.15 K) was 799.66 ± 0.6 kg/m3 and the mass density (313.15 K) turned out to be 787.76 ± 0.61 kg/m3. Also, the speed of sound reads like this: (283.15 K) 1257.9 ± 3.5 m/s; (298.15 K) 1206 ± 3.4 m/s; (313.15 K) 1155.1 ± 3.3 m/s.
For `CCO` [ethanol], the mass density reads like this: (283.15 K) 797.94 ± 0.45 kg/m3; (298.15 K) 785.12 ± 0.47 kg/m3; (313.15 K) 772.53 ± 0.49 kg/m3. In addition, the speed of sound came to 1195.2 ± 3.2 m/s (283.15 K), 1143.3 ± 3.1 m/s (298.15 K) and 1093.8 ± 3 m/s (313.15 K).

A word on the mass density: it is mass per unit of volume. As usually defined, the speed of sound is the propagation velocity of pressure waves in the medium.
